pIC50: −log10 of the molar value.
target: T1, androgen receptor (AR) (Homo sapiens, UniProt P10275, T878A); assay: AR reporter assay in LNCaP cells expressing ARR2PB-FireflyLuc and CMV-RenillaLuc, antagonist mode (% remaining activity, IC50); type: cell-based; settings: 48 h at 37° C., class symbols A-D, read-out: IC50
T1 construct: LNCaP cells expressing ARR2PB-FireflyLuc and CMV-RenillaLuc; endogenous in cells; host or cells: LNCaP cells carrying ARR2PB-FireflyLuc and CMV-RenillaLuc reporters
T1 sequence (P10275 1-920 T878A): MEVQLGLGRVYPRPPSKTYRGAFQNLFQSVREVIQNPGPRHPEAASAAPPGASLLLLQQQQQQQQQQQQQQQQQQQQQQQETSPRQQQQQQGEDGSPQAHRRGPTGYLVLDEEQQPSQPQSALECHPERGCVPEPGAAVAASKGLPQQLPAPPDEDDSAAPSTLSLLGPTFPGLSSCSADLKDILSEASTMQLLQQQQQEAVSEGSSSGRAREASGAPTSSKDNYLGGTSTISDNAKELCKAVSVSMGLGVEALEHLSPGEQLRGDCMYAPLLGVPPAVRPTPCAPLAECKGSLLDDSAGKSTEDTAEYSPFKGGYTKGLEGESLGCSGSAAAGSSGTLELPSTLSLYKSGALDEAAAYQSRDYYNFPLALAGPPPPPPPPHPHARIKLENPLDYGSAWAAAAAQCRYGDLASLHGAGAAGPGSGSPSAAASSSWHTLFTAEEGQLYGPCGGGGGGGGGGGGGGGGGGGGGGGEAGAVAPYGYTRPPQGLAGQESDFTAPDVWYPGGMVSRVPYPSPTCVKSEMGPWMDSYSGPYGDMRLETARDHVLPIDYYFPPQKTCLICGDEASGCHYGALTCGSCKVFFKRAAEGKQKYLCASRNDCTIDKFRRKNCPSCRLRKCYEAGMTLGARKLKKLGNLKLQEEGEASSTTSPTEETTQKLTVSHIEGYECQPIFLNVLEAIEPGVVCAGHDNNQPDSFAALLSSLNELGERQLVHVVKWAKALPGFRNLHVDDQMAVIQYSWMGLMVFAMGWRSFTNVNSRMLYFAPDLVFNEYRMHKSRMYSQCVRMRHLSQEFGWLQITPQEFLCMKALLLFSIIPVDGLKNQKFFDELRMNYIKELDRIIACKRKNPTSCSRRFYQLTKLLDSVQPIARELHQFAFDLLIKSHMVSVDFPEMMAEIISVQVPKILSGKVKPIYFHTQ
Method in brief: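 LNCaP cells carrying ARR2PB-firefly and CMV-Renilla luciferase reporters were treated 48 h at 37 °C with compound plus 0.5 nM DHT. Signals were normalised between 0.5 nM DHT alone and 10 uM enzalutamide + DHT to give % remaining activity, and IC50 was obtained by non-linear regression.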

Compound | pIC50
Cc1nc(-c2c[nH]c3c(C#N)cccc23)ccc1NCCN(C)C [Compound 196] | 5.00 to 6.00
Cc1nc(-c2c[nH]c3c(C#N)cccc23)ccc1NCC(=O)N(C)C [Compound 197] | < 5.00
Cc1nc(-c2c[nH]c3c(C#N)cccc23)ccc1OC1CCNC1=O (stereo not shown) [Compound 199] | 5.00 to 6.00
Fc1ccc(-c2c[nH]c3cnccc23)nc1 [Compound 200] | < 5.00
Fc1ccc(-c2c[nH]c3cccnc23)nc1 [Compound 201] | 5.00 to 6.00
Cc1ccc2c(-c3ccc(F)cc3)c[nH]c2n1 [Compound 203] | 5.00 to 6.00
Cc1nc(-c2c[nH]c3c(S(C)(=O)=O)cccc23)ccc1N [Compound 208] | < 5.00
COc1ccc2c(-c3ccc(N)c(C)n3)c[nH]c2c1C#N [Compound 211] | < 5.00
N#Cc1cccc2c(-c3cnc(OC4CCNC4)cn3)c[nH]c12 (stereo not shown) [Compound 222] | 5.00 to 6.00
Cc1nc(-c2c[nH]c3c(C#N)cccc23)cnc1OC1CC2CCC1N2 (stereo not shown) [Compound 223] | 5.00 to 6.00
Cc1nc(-c2c[nH]c3c(C#N)cccc23)cnc1OC1C2CNCC21 (stereo not shown) [Compound 224] | 5.00 to 6.00
Cc1nc(OC2C3CNCC32)cnc1-c1c[nH]c2c(C#N)cccc12 (stereo not shown) [Compound 225] | < 5.00
Cc1nc(-c2c[nH]c3c(C#N)cccc23)cnc1N1CCC(N)C1 (stereo not shown) [Compound 227] | < 5.00
COCC(COC)Nc1ncc(-c2c[nH]c3c(C#N)cccc23)nc1C [Compound 228] | < 5.00
Cc1nc(-c2c[nH]c3c(C#N)cccc23)cnc1NC1CCNCC1 [Compound 231] | < 5.00
Cc1nc(-c2c[nH]c3c(C#N)cccc23)cnc1NC1CCCNC1 (stereo not shown) [Compound 232] | < 5.00
Cc1nc(-c2c[nH]c3c(C#N)cccc23)cnc1OC1CCNCC1 [Compound 233] | < 5.00
Cc1nc(-c2c[nH]c3c(C#N)cccc23)cnc1OC1CCCNC1 (stereo not shown) [Compound 234] | < 5.00
CC1(C)c2nc(-c3c[nH]c4c(C#N)cccc34)ccc2C(=O)N1CCCO [Compound 235] | < 5.00
CC1(C)c2nc(-c3c[nH]c4c(C#N)cccc34)ccc2C(=O)N1CCCCO [Compound 236] | < 5.00
Cc1nc(-c2c[nH]c3c(Cl)cccc23)ccc1OC1CCNC1 (stereo not shown) [Compound 238] | 5.00 to 6.00

Compound | pIC50
Cc1nc(-c2c[nH]c3c(C#N)cccc23)cnc1OC1CNC1 [Compound 239] | 5.00 to 6.00
N#Cc1cccc2c(-c3ccc(OC4CCNC4)c(Cl)c3)c[nH]c12 (stereo not shown) [Compound 241] | 5.00 to 6.00
N#Cc1cccc2c(-c3cnc(OC4CCNC4)c(OC(F)F)n3)c[nH]c12 (stereo not shown) [Compound 244] | < 5.00
N#Cc1cccc2c(-c3cnc(OC4CCNC4)c(C(F)(F)F)n3)c[nH]c12 (stereo not shown) [Compound 245] | 5.00 to 6.00
Cc1nc(-c2c[nH]c3c(C#N)cccc23)cnc1OC[C@@H]1[C@@H]2CNC[C@@H]21 [Compound 247] | 5.00 to 6.00
Cc1nc(-c2coc3c(Cl)cccc23)cnc1N [Compound 248] | 5.00 to 6.00
CCc1nc(-c2c[nH]c3c(C#N)cccc23)cnc1OC1CCNC1 (stereo not shown) [Compound 249] | < 5.00
CCOc1nc(-c2c[nH]c3c(C#N)cccc23)cnc1NC1CCNC1 (stereo not shown) [Compound 251] | 5.00 to 6.00
N#Cc1cccc2c(-c3ccc(OC4CCNC4)c(C(F)(F)F)n3)c[nH]c12 (stereo not shown) [Compound 252] | 5.00 to 6.00
CCc1nc(-c2c[nH]c3c(Cl)cccc23)cnc1OC1CCNC1 (stereo not shown) [Compound 253] | < 5.00
Fc1cc(-c2c[nH]c3c(Cl)cccc23)ccc1OC1CCNC1 (stereo not shown) [Compound 254] | 5.00 to 6.00
Cc1nc(-c2n[nH]c3cc(F)c(F)cc23)ccc1OC1CCNC1 (stereo not shown) [Compound 255] | 5.00 to 6.00
Cc1nc(-c2n[nH]c3c(Cl)cccc23)ccc1OC1CCNC1 (stereo not shown) [Compound 256] | 5.00 to 6.00
CC1(C)NC(=O)c2ccc(-c3c[nH]c4c(C#N)cccc34)cc21 [Compound 264] | 6.00 to 7.00
CC1(CO)NC(=O)c2ccc(-c3c[nH]c4c(C#N)cccc34)nc21 (stereo not shown) [Compound 266] | < 5.00
CCc1nc(-c2c[nH]c3c(C#N)cccc23)cnc1OCCN [Compound 267] | < 5.00
CCc1nc(-c2c[nH]c3c(C#N)cccc23)cnc1OC1CCN(C(C)=O)C1 (stereo not shown) [Compound 268] | 6.00 to 7.00
CC(=O)N1CCC(Oc2ncc(-c3c[nH]c4c(C#N)cccc34)nc2C(F)(F)F)C1 (stereo not shown) [Compound 269] | 6.00 to 7.00
CC1(C)NC(=O)c2cnc(-c3c[nH]c4c(C#N)cccc34)cc21 [Compound 270] | < 5.00
CC1(C)NC(=O)c2ncc(-c3c[nH]c4c(C#N)cccc34)cc21 [Compound 271] | < 5.00

Second part, the molecule after the results:

pIC50 | Compound
6.00 to 7.00 | CC(=O)N1CCC(Oc2ncc(-c3c[nH]c4c(C#N)cccc34)nc2C)C1 (stereo not shown) [Compound 194]
6.00 to 7.00 | COC(C)CNc1ccc(-c2c[nH]c3c(C#N)cccc23)nc1C (stereo not shown) [Compound 195]
6.00 to 7.00 | Cc1nc(-c2c[nH]c3c(C(F)(F)F)cccc23)cnc1OC1CCNC1 (stereo not shown) [Compound 198]
6.00 to 7.00 | Fc1ccc(-c2c[nH]c3cc(F)cnc23)nc1 [Compound 202]
6.00 to 7.00 | N#Cc1cc(F)cc2c(-c3ccc4ccc(F)cc4n3)c[nH]c12 [Compound 204]
6.00 to 7.00 | CC1NC(=O)c2ccc(-c3c[nH]c4c(C#N)cccc34)nc21 (stereo not shown) [Compound 205]
6.00 to 7.00 | CC1(C)NC(=O)c2ccc(-c3c[nH]c4c(C#N)cccc34)nc21 [Compound 206]
6.00 to 7.00 | Cc1nc(-c2c[nH]c3c(Cl)cccc23)ccc1N [Compound 207]
6.00 to 7.00 | Nc1ccc(-c2c[nH]c3cc(F)c(F)cc23)nc1Cl [Compound 209]
> 7.00 | Cc1nc(-c2c[nH]c3c(C#N)c(F)ccc23)ccc1N [Compound 210]
> 7.00 | Cc1cncc(-c2c[nH]c3c(Cl)cccc23)n1 [Compound 212]
6.00 to 7.00 | N#Cc1cccc2c(-c3cncc(N4CCC4)n3)c[nH]c12 [Compound 213]
6.00 to 7.00 | CCc1nc(-c2c[nH]c3c(C#N)cccc23)cnc1N [Compound 214]
> 7.00 | COc1cncc(-c2c[nH]c3c(C#N)cccc23)n1 [Compound 215]
6.00 to 7.00 | CC1(C)NC(=O)c2ccc(-c3c[nH]c4cc(F)ccc34)nc21 [Compound 216]
6.00 to 7.00 | CN1C(=O)c2ccc(-c3c[nH]c4c(Cl)cccc34)nc2C1(C)C [Compound 217]
6.00 to 7.00 | CC1(C)NC(=O)c2ccc(-c3c[nH]c4c(Cl)cccc34)nc21 [Compound 218]
6.00 to 7.00 | Cc1nc(-c2c[nH]c3c(C#N)cccc23)ccc1NCC(C)(C)O [Compound 219]

pIC50 | Compound
6.00 to 7.00 | Cc1nc(-c2c[nH]c3c(C#N)cccc23)ccc1NCCN [Compound 220]
6.00 to 7.00 | COCC(C)Nc1ccc(-c2c[nH]c3c(C#N)cccc23)nc1C (stereo not shown) [Compound 221]
6.00 to 7.00 | N#Cc1cccc2c(-c3cnc(NC4CCNC4)c(OC(F)F)n3)c[nH]c12 (stereo not shown) [Compound 226]
6.00 to 7.00 | N#Cc1cccc2c(-c3ccc(OC4CCNC4)c(F)c3)c[nH]c12 (stereo not shown) [Compound 229]
6.00 to 7.00 | Cc1nc(-c2c[nH]c3c(C#N)cccc23)ccc1OC1CCNC1 (stereo not shown) [Compound 230]
6.00 to 7.00 | N#Cc1cccc2c(-c3ccc(OC4CCNC4)c(Cl)n3)c[nH]c12 (stereo not shown) [Compound 237]
6.00 to 7.00 | CC(=O)N1CC(Oc2ncc(-c3c[nH]c4c(C#N)cccc34)nc2C)C1 [Compound 240]
6.00 to 7.00 | Cc1nc(-c2c[nH]c3c(C#N)cccc23)cnc1OC[C@H]1[C@@H]2CNC[C@@H]21 [Compound 246]
6.00 to 7.00 | COc1nc(-c2c[nH]c3c(C#N)cccc23)cnc1NC1CCNC1 (stereo not shown) [Compound 250]
6.00 to 7.00 | CC(=O)N1CCC(Oc2ncc(-c3c[nH]c4c(Cl)cccc34)nc2C)C1 (stereo not shown) [Compound 257]
6.00 to 7.00 | CC(=O)N1CCC(Oc2ncc(-c3c[nH]c4c(C(F)(F)F)cccc34)nc2C)C1 (stereo not shown) [Compound 258]
6.00 to 7.00 | CC(=O)N1CCC(Oc2ncc(-c3c[nH]c4c(C#N)cccc34)nc2Cl)C1 (stereo not shown) [Compound 259]
6.00 to 7.00 | CC(=O)N1CCC(Oc2ccc(-c3c[nH]c4c(C#N)cccc34)nc2C)C1 (stereo not shown) [Compound 260]
6.00 to 7.00 | CC(=O)N1CCC(Oc2ccc(-c3c[nH]c4c(C#N)cccc34)nc2Cl)C1 (stereo not shown) [Compound 261]
6.00 to 7.00 | CC(=O)N1CCC(Oc2ccc(-c3c[nH]c4c(C#N)cccc34)nc2C(F)(F)F)C1 (stereo not shown) [Compound 262]
6.00 to 7.00 | CC(=O)N(C)CCOc1ncc(-c2c[nH]c3c(Cl)cccc23)nc1C [Compound 263]
> 7.00 | COc1nc(-c2c[nH]c3c(C#N)cccc23)cnc1NC1CCN(C(C)=O)C1 (stereo not shown) [Compound 265]

Source: US12448368B2, “Indole compounds as androgen receptor modulators” (NIDO BIOSCIENCES, INC., priority 2020, dated 2025)
